The source of these data is patent US5206254A, “β-carbonyl-carboxyamides of 1,3-thiazolidines” (Boehringer Mannheim Italia S.p.A., priority 1988, dated 1993).

Counter-ions that a name gives are not always drawn.

The test system of one data set is cough strokes. In words: Long lasting persistence of the antitussive action. Format: in vivo, guinea pig. The conditions noted are these: 30 mg/Kg os. The source says: (§1) Cough strokes are provoked by electrical stimulation of the guinea pig tracheal mucosa. according to Cavanaugh et al., (Arch. Ing. Pharmacodyn., 220, 258, 1976). Cough strokes are stimulated both before (i.e. in the absence of drug treatment) and one hour after the drug administration. […] A group of six animals is used at each dose level; this test is particularly useful for the evaluation of long lasting effects until and after three hours from the administration.
The results showing the long lasting persistance of the antitussive action is reported in Table 3 in comparison with codeine phosphate; all the substances are administered at 30 mg/Kg by oral route.

Data set [1] has as its system airways hyperreactivity, pulmonary inflation pressure (PIP). The data set is described as follows: Airway hyperreactivity (PIP increase after autacoid challenge) after tobacco smoke exposure. The conditions noted are these: for prevention/inhibition of airway hyperreactivity (words): compounds: oral 20-60, i.v. 0.25-5, s.c. 2-15 mg/Kg, 6 MPHE 10-50 mg/Kg i.m., DSCG 20-100 mg/Kg i.m., salbutamol 0.5 mg/Kg i.v. It counts as in vivo, guinea pig (male). The procedure: In order to show this surprising pharmacological property, the compounds of the invention were tested in a bronchial hyperreactivity animal model recently developed (see Omini C. et al., 23rd Ann. Med: S.E.P.C.R., Athens 20-24th June 1988, Abstract 15S Eur. J. Resp. Dis. in press).
The airways hyperreactivity is measured as abnormal increase of the pulmonary inflation pressure (PIP) caused by the exacerbate bronchconstrictive response that follows to an autocoid challenge after active forced tobacco smoke exposure for a 10 minutes period. The abnormal PIP increase is compared with the PIP increase observed, in the same animal, before tobacco smoke, and after autacoids challenge. Male guinea pigs (400-450 g b.w.) anaesthetized with ethylurethane and pancuronium bromide were used; the recording of PIP is performed in accordance with Konzett and Rossler methods (Naumm. Schiedeberg Arch. Exp. Path/Pharmacol. 195, 71, 1940). To evidentiate such bronchial smooth muscle hyperreactivity suitable autocoids are acetylcholine, histamine, serotonine, bradykinins.
Male guinea pigs (400-450 g) are anaesthetized with ethylurethane (i.p.) and pancuronium bromide (i.v.): the trachea is cannulated and the lungs are ventilated at constant volume by connection with "Rodent respirator" Basile apparatus mod. 7025. The pulmonary inflation pressure (PIP) is measured by connection to a side-warm of the tracheal cannula of a Bell and Howell pressure transducer (mod. P 17570) that is connected to a Beckmann (mod. R 611) dynograph. The right jugular vein is catheterized for i.v. injection of autacoids and drugs. The pharmacological experiment starts with the treatment of the animal with the autocoids (for example acetylcholine by i.v. route in the interval 2.5-10 mcg/kg) in order to induce a reversible bronchoconstruction response, measured by an increase of the pulmonary inflation pressure (PIP). This increase is recorded and it is considered to represent the basal value of the animal bronochoconstrictor response to the challenge with the autocoid.
The animal is then actively exposed for a 10 minutes time period to the tobacco smoke of alighted cigarette (directly inspired by the animal). Afterwards the animal is challenged again with the autocoid, using the dosage previously injected for evokating the basal bronchoconstrictor response. The novel challenge induces an exacerbate bronochoconstrictory response and the airway hyper-reactivity is measured as the differential increase in the PIP after tobacco smoke exposure in respect to the basal value. The challenge may be repeated in the time, (2-3 hours after smoke exposure, too) until reproducible hyper-reactive responses are obtained or at different time from tobacco exposure.
(§2) A substance may be administered by i.v., oral, subcutaneous or intramuscular route at different times before tobacco smoke exposure. A compound is considered effective when it is able to prevent almost completely the exacerbate differential increase in the PIP and normalize the BAL cell cytologic pattern at the same dose level.
Differential increases of the pulmonary inflation pressure over the basal value after autacoid challenges, ranging from 150-200% are observed after smoke exposure in the animal control group (i.e. in the absence of any pharmacological treatment).
Drug treatment may be performed using different routes: intravenous, oral, subcutaneous and/or intramuscular; the substances may be administered at different times before smoke exposure and at different dose levels.
Dose related responses have been determined for reference drugs such as 6β-methyl-prednisolone-21-hemisuccinate sodium salt (6MPHE, by i.m. route, 7 hrs. b.s.l.), sodium dichromoglycate (DSCG, by i.m. route, 2 hrs. b.s.e.) and salbutamol (by i.v. route, 20 minutes before smoke exposure); the results reported in table 4, are expressed as % protection from hyperreactive reaction. […]

Data set [2] can be described thus: Acute toxicity (LD50) in rats, oral. The conditions noted are these: rat, in vivo, 14th day of observation, read-out: DL50. The method, then: The compounds of the invention are therapeutically useful substances, practically free of acute, subacute or chronic toxic effects. LD50 values, usually exceeding 1 g/kg body weight are measured in mice and in rats after oral and intraperitoneal (i.p.) administration of the compounds of the invention. Only N-diethylaminoethylamino, N'-[(R,S)-2-(2-methoxyphenoxymethyl)-1,3-thiazolidine]-malondiamide and N-β-pyridylmethylamino-N'-[(R,S)-2-(2-methoxy-phenoxy-methyl)-1,3-thiazolidine]-malondiamide show DL50 values of 0.25 and 0.85 g/Kg respectively after oral administration to rats at the 14th day of observation.

Data set [3] has as its system cough strokes provoked by electrical stimulation of the guinea pig tracheal mucosa. In words: Electrically stimulated cough stroke test (Cavanaugh et al.). Format: in vivo. The conditions noted are these: for Percent reduction of cough strokes: 15 mg/kg os, one hour after drug.
Excerpt: Table 2 refers to results with the compounds of formula (I) in the electrically stimulated cough stroke test, in comparison with codeine phosphate.
as §1

Data set [4] relates to cytologic pattern of BAL fluids. In words: Cytology of bronchoalveolar lavage (BAL) fluids after tobacco smoke exposure. Format: in vivo, guinea pig (male). The note with it: smoke-exposed animals; 6 MPHE 50 mg/Kg, DSCG 100 mg/Kg, salbutamol 0.5 mg/Kg.
Excerpt: Cytologic studies of the bronochoalveolar lavage (BAL) fluids of the animals, exposed to tobacco smoke and untreated with drugs, show a statistically significant increase of the overall cell counts. Specifically, the number of epithelial cells and of eosinophils is increased, in respect to the cell content of unexposed animals.
At the end of the experiment and/or at a desired time after smoke exposure, the animal is disconnected, and the broncho-alveolar contents are examined by lavages, injecting in the trachea physiological […] solutions (10 ml×3 times). These BAL fluids are combined, centrifuged for 15 minutes at 150 g to give pellets that are suspended in physiological saline (1 ml). The total cell number of BAL fluid is counted in a Burcher camera.
Differential cell counts are made from centrifugated preparations stained with Diff-Quick® counting at least 300 cells for each sample and the % number of epithelial cells, eosinophils, neutrophils, lymphocytes and macrophages are determined.
as §2

Data set [5] deals with cough strokes, evokated by the two experimental models. In words: In vivo experiments with naloxone in the two cough models. Details: species or system guinea pig.

Take `COc1ccccc1OCC1SCCN1C(=O)CC(=O)NCc1cccnc1` (centres unmarked): in the data set on cough strokes, the “Percentage reduction of cough strokes during treatment, 1 h” value (“Percentage reduction … 1 h” below) is listed as 80%; the “Percentage reduction of cough strokes during treatment, 2 h” value (from here on “Percentage reduction … 2 h”) was determined as 67%; the “Percentage reduction of cough strokes during treatment, 3 h” value (shortened to “Percentage reduction … 3 h”) is 60%.

With `COc1ccccc1OCC1SCCN1C(=O)CC(=O)O` (racemic) [Compound 10, (R,S)-2-(2-methoxy-phenoxymethyl)-3-carboxyacetyl-1,3-thiazolidine], the “prevention/inhibition of airway hyperreactivity (words)” value (“prevention/inhibition” below) in data set [1] was “effective inhibitors of the hyperreactive reaction”.

Take `CNC(=O)CC(=O)N1CCSC1COc1ccccc1OC` (racemic) [Compound 11, N-methylamino-N-[(R,S)-2-(2-methoxy-phenoxymethyl)-1,3-thiazolidine]-malondiamide]: in the data set with cough strokes, the “Percentage reduction … 1 h” value is recorded as 24%; the “Percentage reduction … 2 h” value was found to be 48%; the “Percentage reduction … 3 h” value is 60%.

`CCN(CC)CCNC(=O)CC(=O)N1CCSC1COc1ccccc1OC` (racemic) [Example 14, N-(diethylaminoethyl), N'-[(R,S)-2-(2-methoxy-phenoxymethyl)-1,3-thiazolidine]-malondiamide]: the LD50 at 336 h in data set [2] is 250 mg/kg.

Take `COc1ccc2c3c1O[C@H]1[C@@H](O)C=C[C@H]4[C@@H](C2)N(C)CC[C@@]341` [Codeine phosphate, reference compound]: in data set [3], the “Percent reduction of cough strokes” value came to 58%. Besides, in the data set on cough strokes, the “Percentage reduction … 1 h” value is on record as 77%; the “Percentage reduction … 2 h” value was 53%; the “Percentage reduction … 3 h” value worked out at 46%.

For the molecule `C[C@H]1C[C@@H]2[C@H]([C@@H](O)C[C@@]3(C)[C@H]2CC[C@]3(O)C(=O)COC(=O)CCC(=O)O)[C@@]2(C)C=CC(=O)C=C12` [Compound 6MPHE, 6α-methyl-prednisolone-21-hemisuccinatesodium salt], in data set [4], the “normalization of BAL fluid cytology” value was “able to normalize the cellular pattern in the BAL fluids”. The “% protection from hyperreactive reaction” value in data set [1] (6MPHE 10 mg/kg i.m., 7 hrs before smoke exposure) turned out to be 65%; in data set [1] (6MPHE 25 mg/kg i.m., 7 hrs before smoke exposure), 85%; in data set [1] (6MPHE 50 mg/kg i.m., 7 hrs before smoke exposure), 100%. Further, the entries for the “prevention/inhibition” value in data set [1] and in data set [1] (listed as 6α-methyl-prednisolone- 21-hemisuccinatesodium salt (6 MPHE)) were “preventing airway hyperreactivity” and “effective”, respectively.

As to `O=C(O)c1cc(=O)c2c(OCC(O)COc3cccc4oc(C(=O)O)cc(=O)c34)cccc2o1` [DSCG], the “normalization of BAL fluid cytology” value in data set [4] is recorded as “able to normalize the cellular pattern in the BAL fluids”. Moreover, the “% protection from hyperreactive reaction” value in data set [1] (DSCG 25 mg/kg i.m., 2 hrs before smoke exposure) was determined as 27%; in data set [1] (DSCG 50 mg/kg i.m., 2 hrs before smoke exposure), 64%; in data set [1] (DSCG 100 mg/kg i.m., 2 hrs before smoke exposure) it was 100%. For the same molecule, the “prevention/inhibition” value in data set [1] is “preventing airway hyperreactivity”; in data set [1] (listed as Dichromoglycate (DSCG)) it was “effective”.

With `CC(C)(C)NCC(O)c1ccc(O)c(CO)c1` (centres unmarked) [Salbutamol], in data set [4], the “normalization of BAL fluid cytology” value is “fails to modify the smoke induced pathological changes of the BAL fluid cytology”. For the same molecule, in data set [1] (Salbutamol 5 mg/kg i.v., 20 minutes before smoke exposure), the “% protection from hyperreactive reaction” value came to 90%. For the same molecule, the “prevention/inhibition” value in data set [1] was “effective”.

Turning to `C=CCN1CC[C@]23c4c5ccc(O)c4O[C@H]2C(=O)CC[C@@]3(O)[C@H]1C5` [naloxone, reference compound], in data set [5] (5 mg/kg s.c., both experimental models), the “protection against cough strokes by naloxone alone” value was “unable to protect guinea pig against cough strokes”.

By ED50 is commonly meant the dose that gives a 50% effect, or the effect in half of the subjects. A lower ED50 goes with an effect at a small dose. “(+)-[2-(2-methoxyphenoxymethyl)-3-ethoxycarbonyl]-1,3-thiazolidine [Compound 8]”: in data set [3], the “Percent reduction of cough strokes” value was 63%. In addition, in data set [3] (os, electrical stimulation (Table II)), the ED50 worked out at 12 mg/kg.

Take “(R,S)-2-(2-methoxy-phenoxymethyl)-3-(3-oxo-butanoyl)-1,3-thiazolidine [Compound 6]”: the “Percent reduction of cough strokes” value in data set [3] is 14%.

Consider “(R,S)-2-(2-methoxy-phenoxymethyl)-3-ethoxycarbonylacetyl-1,3-thiazolidine [Compound 7]”, for which the “Percent reduction of cough strokes” value in data set [3] is given as 18%. In the data set on cough strokes, the “Percentage reduction … 1 h” value came out at 70%; the “Percentage reduction … 2 h” value stood at 60%; the “Percentage reduction … 3 h” value was found to be 40%. Also, the “prevention/inhibition” value in data set [1] (listed as (R,S)-2-(2-methoxyphenoxymethyl)-3-ethoxycarbonylacetyl-1,3-thiazolidine) was “highly effective”. Also, the “prevention/inhibition” value in data set [1] (listed as (R,S)-2-[2-methoxy-phenoxymethyl)-3-ethoxycarbonylacetyl-1,3-thiazolidine) was “effective inhibitors of the hyperreactive reaction”. Besides, in data set [5] (naloxone 5 mg/Kg s.c. pretreatment, substance 30 mg/Kg os), the “protective effect after naloxone pretreatment” value is listed as “complete protection against cough strokes”.
